# Legend:
# soleus muscle [1] = experiment: Individual free fatty acids by gas chromatography in soleus muscle of rats fed high fat diets; parameters: species or system rat; details: 1 hour, GC
# From the text: (§1) High-fatted rats. Groups of male Wistar rats (n=21/diet) were ad libitum fed high-fat diets containing standard rat chow to which 40% (w/w) of lard, corn oil or olive oil had been added, from the time of weaning (age=21 d) until sacrifice at 50 d. Triacylglycerol from lard contains predominantly saturated fatty acids; that from corn oil […], see Table 4.
# (§2) Soleus muscle tissue isolation and incuhation.Immersion and incubation media was Krebs-Henseleit buffer (KHB) containing 118.5 mM NaCl, 4.75 mM KCl, 1.18 mM MgSO4.7H2O and KH2PO4, 24.8 mM NaHCO3, 2.54 mM CaCl2 and 10 mM d-glucose. The medium was gassed continuously with 95% O2/5% CO2. […] Soleus muscles of both legs were excised keeping the tissue immersed in KHB; muscles were separated into two equal parts and transferred to the incubation flasks. At the completion of incubation the muscles were snap frozen in liquid nitrogen, and then trimmed of connective tissue and all visible fat. The muscle strips were stored at −80° C. until analysis.
# (§3) Lipid extraction and chromatographic separation of fatty acids. Total lipids were extracted from muscle strips by a modified version of the method of Bligh and Dyer (Gorski et al., 1988, Mol & Cell Biochem 178:113-118; 1. Bligh et al., 1959, Can J Biochem Physiol 37: 911-917). Muscles were homogenised (Soniprep 150) in 0.4 ml of deionised water. Solvent volumes used herein were varied according to the water content of the muscle (ie muscle weight) as described (Bligh & Dyer, supra). 2 vols of methanol containing 0.005% butylated hydroxy toluene (BHT) and 1 vol chloroform were added to the muscle suspension. Homogenates were vortexed at maximum speed for 2 minutes and centrifuged at 2,500 g for 4 minutes. Supernatants were recovered and pellets re-extracted with 2 vol methanol, 1 vol chloroform and 0.8 vol 0.2 N HCl. Residues were vortexed for 2 min then centrifuged at 3,500 g for 3 min. After centrifugation the combined supernatants were diluted with 2v each of milli Q water and chloroform and the phases separated by centrifugation at 3,500 g for 4 minutes. The lower chloroform phase was recovered, neutralised by dropwise addition of 0.2 N methanolic NH4OH and evaporated down in a stream of N2. The samples were stored at −80° C. until required.
# (§4) Aminopropyl phase (250 mg) was packed into 16 ml teflon columns with teflon frits placed at the top and bottom of the bonded phase. Columns were placed in a Vac Elut apparatus and washed twice with 2 ml portions of hexane (Prasad et al., 1988, J Chromato 428: 221-228; Kaluzny et al., 1985, J Lipid Res 26: 135-140). The dry lipid samples were taken up in two 0.150 ml portions of chloroform and applied to the column under atmospheric pressure. After adsorption the neutral lipids were eluted with 4 ml of chloroform-2-propanol (2:1, v/v) and the free fatty acids eluted with 4 ml of 2% acetic acid in diethyl ether. The solvent containing the free fatty acids was dried under a stream of N2.
# Gas-liquid chromatographic analysis. Dry free fatty acid residues were processed for derivatisation of methyl esters by the boron trifluoride-methanol method (Prasad, supra). 1 ml of boron trifluoride in methanol (BF3) was added to each sample, the sample vials were heated at 70° C. for 5 minutes, shaken vigorously, and baked for a further 10 minutes. Once the samples reached room temperature 0.5 ml milli Q water was added, the sample vials shaken, 0.1 ml heptane was added and the sample shaken again. 0.05 ml of the top heptane layer was removed for GLC analysis. A Model HP5890 Plus Series 2 (Hewlett-Packard) gas chromatograph equipped with a DB-225 column was used to separate the methyl esters of the fatty acids and a Model HP 5890 GC with a Model HP 5973 MS (Hewlett-Packard) GC/MS used to confirm the identity of individual free fatty acids. […]
# soleus muscle [2] = experiment: Triglyceride and free fatty acid content (enzymatic) in isolated soleus muscle of rats fed high fat diets; format: cell-based, rat; details: 1 h
# From the text: as §1, §2, §3, §4
# Determination of tissue free fatty acids and triacylglycerol concentration by enzymatic analyses. Free fatty acids were separated from total lipid, evaporated under a stream of N2 and stored at −80° C. until analysis. Samples were dissolved in 50 μl of warm ethanol (35-40° C.), and 0.625 ml of a Triton X-100 (6% w/v) solution was added once the ethanol reached room temperature. The solution was stirred for 30 min, then made up to 0.825 ml with the Triton solution. Free fatty acids were quantified using a commercial method (Boehringer Mannheim) adapted for micro analyses (Cobas Mira, Roche Diagnostics), with palmitic acid standards. Triacyl glycerol levels were quantified in the total lipid fraction (Pointe Scientific) with a glycerol standard.
# Total lipid was extracted and quantitated. Results are shown in FIGS. 18A NEFA and 18B triglyceride.
# soleus muscle [3] = experiment: Lipid metabolites (free fatty acid, glycerol, triglyceride; enzymatic analysis) in isolated soleus muscle from normally fed rats; format: cell-based, rat
# [4] = rats fed diet high in olive oil
substance,measurement,setting,value
rat CGRP-1,free fatty acid adrenic C22:4,soleus muscle [1]; rats fed diet high in corn oil,0.04 ± 0.002 nmol/g wwt
same,free fatty acid arachidic C20:0,soleus muscle [1]; rats fed diet high in corn oil,0.03 ± 0.005 nmol/g wwt
same,free fatty acid arachidonic C20:4,soleus muscle [1]; rats fed diet high in corn oil,0.02 ± 0.002 nmol/g wwt
same,free fatty acid cervonic C22:6,soleus muscle [1]; rats fed diet high in corn oil,0.03 ± 0.003 nmol/g wwt
same,free fatty acid linoleic C18:2,soleus muscle [1]; rats fed diet high in corn oil,0.18 ± 0.008 nmol/g wwt
same,free fatty acid linolenic C18:3,soleus muscle [1]; rats fed diet high in corn oil,0.17 ± 0.01 nmol/g wwt
same,free fatty acid margaric C17:0,soleus muscle [1]; rats fed diet high in corn oil,0.02 ± 0.003 nmol/g wwt
same,free fatty acid myristic C14:0,soleus muscle [1]; rats fed diet high in corn oil,0.03 ± 0.02 nmol/g wwt
same,free fatty acid oleic C18:1,soleus muscle [1]; rats fed diet high in corn oil,0.16 ± 0.01 nmol/g wwt
same,free fatty acid palmitic C16:0,soleus muscle [1]; rats fed diet high in corn oil,0.16 ± 0.03 nmol/g wwt
same,free fatty acid palmitoleic (n-7) C16:1,soleus muscle [1]; rats fed diet high in corn oil,0.01 ± 0.0008 nmol/g wwt
same,free fatty acid palmitoleic (n-9) C16:1,soleus muscle [1]; rats fed diet high in corn oil,0.20 ± 0.008 nmol/g wwt
same,free fatty acid pentadecanoic C15:0,soleus muscle [1]; rats fed diet high in corn oil,0.04 ± 003 nmol/g wwt
same,free fatty acid stearic C18:0,soleus muscle [1]; rats fed diet high in corn oil,0.39 ± 0.02 nmol/g wwt
same,free fatty acid timnodonic C20:5,soleus muscle [1]; rats fed diet high in corn oil,0.04 ± 0.001 nmol/g wwt
same,free fatty acid vaccenic C18:1,soleus muscle [1]; rats fed diet high in corn oil,0.02 ± 0.004 nmol/g wwt
same,free fatty acid adrenic C22:4,soleus muscle [1]; rats fed diet high in lard,0.04 ± 0.005 nmol/g wwt
same,free fatty acid arachidic C20:0,soleus muscle [1]; rats fed diet high in lard,0.07 ± 0.004 nmol/g wwt
same,free fatty acid arachidonic C20:4,soleus muscle [1]; rats fed diet high in lard,0.02 ± 0.001 nmol/g wwt
same,free fatty acid cervonic C22:6,soleus muscle [1]; rats fed diet high in lard,0.015 ± 0.002 nmol/g wwt
same,free fatty acid linoleic C18:2,soleus muscle [1]; rats fed diet high in lard,0.23 ± 0.005 nmol/g wwt
same,free fatty acid margaric C17:0,soleus muscle [1]; rats fed diet high in lard,0.09 ± 0.01 nmol/g wwt
same,free fatty acid myristic C14:0,soleus muscle [1]; rats fed diet high in lard,0.03 ± 0.007 nmol/g wwt
same,free fatty acid oleic C18:1,soleus muscle [1]; rats fed diet high in lard,0.25 ± 0.02 nmol/g wwt
same,free fatty acid palmitic C16:0,soleus muscle [1]; rats fed diet high in lard,0.24 ± 0.01 nmol/g wwt
same,free fatty acid palmitoleic (n-7) C16:1,soleus muscle [1]; rats fed diet high in lard,0.02 ± 0.005 nmol/g wwt
same,free fatty acid palmitoleic (n-9) C16:1,soleus muscle [1]; rats fed diet high in lard,0.03 ± 0.003 nmol/g wwt
same,free fatty acid pentadecanoic C15:0,soleus muscle [1]; rats fed diet high in lard,0.14 ± 0.01 nmol/g wwt
same,free fatty acid stearic C18:0,soleus muscle [1]; rats fed diet high in lard,0.35 ± 0.06 nmol/g wwt
same,free fatty acid timnodonic C20:5,soleus muscle [1]; rats fed diet high in lard,0.02 ± 0.002 nmol/g wwt
same,free fatty acid vaccenic C18:1,soleus muscle [1]; rats fed diet high in lard,0.03 ± 0.006 nmol/g wwt
same,free fatty acid adrenic C22:4,soleus muscle [1]; [4],0.03 ± 0.006 nmol/g wwt
same,free fatty acid arachidic C20:0,soleus muscle [1]; [4],0.04 ± 0.001 nmol/g wwt
same,free fatty acid arachidonic C20:4,soleus muscle [1]; [4],0.02 ± 0.007 nmol/g wwt
same,free fatty acid cervonic C22:6,soleus muscle [1]; [4],0.11 ± 0.03 nmol/g wwt
same,free fatty acid linoleic C18:2,soleus muscle [1]; [4],0.06 ± 0.01 nmol/g wwt
same,free fatty acid linolenic C18:3,soleus muscle [1]; [4],0.03 ± 0.0009 nmol/g wwt
same,free fatty acid margaric C17:0,soleus muscle [1]; [4],0.03 ± 0.012 nmol/g wwt
same,free fatty acid myristic C14:0,soleus muscle [1]; [4],0.015 ± 0.0009 nmol/g wwt
same,free fatty acid oleic C18:1,soleus muscle [1]; [4],0.34 ± 0.01 nmol/g wwt
same,free fatty acid palmitic C16:0,soleus muscle [1]; [4],0.20 ± 0.006 nmol/g wwt
same,free fatty acid palmitoleic (n-7) C16:1,soleus muscle [1]; [4],0.02 ± 0.002 nmol/g wwt
same,free fatty acid palmitoleic (n-9) C16:1,soleus muscle [1]; [4],0.27 ± 0.013 nmol/g wwt
same,free fatty acid pentadecanoic C15:0,soleus muscle [1]; [4],0.08 ± 002 nmol/g wwt
same,free fatty acid stearic C18:0,soleus muscle [1]; [4],0.12 ± 0.004 nmol/g wwt
same,free fatty acid timnodonic C20:5,soleus muscle [1]; [4],0.01 ± 0.001 nmol/g wwt
same,free fatty acid vaccenic C18:1,soleus muscle [1]; [4],0.17 ± 0.008 nmol/g wwt
same,soleus muscle triglyceride content,"soleus muscle [2]; diet with 40% added lard, 100 nM amylin or CGRP-1, 4.4 μM norepinephrine, control 1.14±0.16",0.75 ± 0.08 µmol/g
same,soleus muscle free fatty acid content,"soleus muscle [2]; diet with 40% added lard, 100 nM amylin or CGRP-1, 4.4 μM norepinephrine, control 43±8",64 ± 7 nmol/g
same,soleus muscle triglyceride content,"soleus muscle [2]; diet with 40% corn oil, 100 nM, control 0.89±0.06 μmol/g",0.48±0.06 [mol/g
same,soleus muscle free fatty acid content,"soleus muscle [2]; diet with 40% corn oil, 100 nM, control 35±4",99 ± 17 nmol/g
same,soleus muscle triglyceride content,"soleus muscle [2]; diet with 40% olive oil, 100 nM, control 0.83±0.1",0.52 ± 0.08 µmol/g
same,soleus muscle free fatty acid content,"soleus muscle [2]; diet with 40% olive oil, 100 nM, control 15±3",55 ± 14 nmol/g
same,"soleus muscle free fatty acid concentration, agonist alone","soleus muscle [3]; 1 pM CGRP, 1 h (FIG. 3C)",166 ± 18 nmol/g
same,"soleus muscle free fatty acid content, agonist alone","soleus muscle [3]; 100 nM, 1 h, normal-fed rats (FIG. 3A, 3B)",334 ± 52 nmol/g
same,triacylglycerol (triglyceride) content,"soleus muscle [3]; soleus, normally fed rats, 60-min, 100 nM amylin or CGRP-1, 4.4 μM norepinephrine, control 1.17±0.15, not significant",1.9 ± 0.23 µmol/g
same,intramuscular glycerol content,"soleus muscle [3]; soleus, normally fed rats, 1 h, 100 nM amylin or CGRP-1, 4.4 μM norepinephrine, control 0.07±0.007",0.04 ± 0.008 nmol/g
